Reference: patent US20200375929A1, “METHODS AND COMPOSITIONS FOR THE TREATMENT OF DISEASES ASSOCIATED WITH CANCER, INFLAMMATION, OR IMMUNE RESPONSE” (Washington University, priority 2017, published 2020)
Entries after “also recorded” stand apart in the source; their conditions may differ.

Key:
eIF2α = eIF2α phosphorylation in BMDMs (western blot); assay type: cell-based, mouse; conditions: DI
Procedure: BMDM were prepared from 6- to 12-week-old mice as described 1 and cultured in RMPI-1640 medium supplemented with 10% fetal bovine serum (FBS), 2 mM L-glutamine, and 100 U/mL penicillin-streptomycin and mouse recombinant M-CSF ([…], Peprotech). For experiments, cells were seeded at concentration 10^6 cells/mL in tissue culture plates of various formats. […]
Cells were lysed in RIPA Lysis Buffer System (Santa Cruz) and heat-denatured at 95° C. for 5 min in reducing sample buffer (BioRad). […] Non-specific binding was blocked with 5% skim milk (or 5% BSA when phospho-proteins were analyzed), and membranes were probed with primary antibodies specific to Nrf2 (#12721), HO-1 (#70081), IκBζ (mouse specific, #93726), IκBζ(#9244), ATF3 (#D2Y5W), IRAK1 (#4504; sensitivity of IRAK1 detection diminishes upon IRAK1 K63 ubiquitination), phospho-IKK (Ser176/180, #2697), p62/SQSTM1 (#5114), phospho-eIF2α (Ser51, #9721), eIF2α (#5324) from Cell Signaling; GAPDH (sc-25778), IκBα (sc-1643), ATF3 (sc-188), SDHA (sc-166909) from Santa Cruz; NQO1 (ab28947) from Abeam, followed by incubation with anti-rabbit-HRP (1:10,000; sc-2030) or anti-mouse-HRP (1:10,000; sc-2031) from Santa Cruz and Clarity western ECL substrate (Bio-Rad). […]

IL6, IL12, IL1b, TNFα = experiment: Cytokine production in LPS-stimulated BMDMs (ELISA); assay type: cell-based, mouse
Procedure: (§1) BMDM were prepared from 6- to 12-week-old mice as described 1 and cultured in RMPI-1640 medium supplemented with 10% fetal bovine serum (FBS), 2 mM L-glutamine, and 100 U/mL penicillin-streptomycin and mouse recombinant M-CSF ([…], Peprotech). For experiments, cells were seeded at concentration 10^6 cells/mL in tissue culture plates of various formats. The cells were treated with DI (250 μM (unless stated otherwise), cat #592498, Sigma), DMF (50 μM (unless stated otherwise), cat #242926, Sigma), 3-(ethoxycarbonyl)but-3-enoic acid (3MI, 5 μM, Aris Pharmaceuticals Inc.), 4-ethoxy-2-methylene-4-oxobutanoic acid (MI, Aris Pharmaceuticals Inc.) for 12 h and activated with lipopolysaccharide (LPS; 100 ng/mL; E. coli 0111:B4, Sigma) for 1 h or as indicated. In some experiments cells were stimulated with combination of LPS (20 ng/mL) and IFN-γ (50 ng/mL; Peprotech). In some experiments cells were treated with α-tocopherol (AT, 10 μM; Sigma), MitoTEMPO (MT, 500 μM; Sigma), N-acetylcysteine (NAC, 1 mM, Sigma), ethylester of GSH (EtGSH; 1 mM, Santa Cruz) or buthionene sulfoximine (BSO, 500 μM, Sigma) alone or in combination with DI for 12 h. In some experiments BMDMs were treated with DI for 12 h and bafilomycin A (BafA, 100 nM, Sigma) or MG132 (10 μM, Selleckchem) were added 30 min before subsequent LPS stimulation.
Cytokines in cell supernatants were analyzed using DuoSet® ELISA kits according to manufacturer protocol (R&D Systems). The supernatants from BMDMs were diluted 1:4, from human blood monocytes 1:3.

Nfkbiz mRNA = experiment: Nfkbiz (Ikb-ζ) mRNA expression in BMDMs (qPCR); assay type: cell-based, mouse; conditions: DI 12 h, then LPS
Procedure: as §1, with “In some experiments BMDMs were treated with DI for 12 h and bafilomycin A (BafA, 100 nM, Sigma) or MG132 (10 μM, Selleckchem) were added 30 min before subsequent LPS stimulation.” left out
RNA from cultured cells was isolated using a Total RNA I kit (OMEGA). […] Threshold cycle (CT) values for each sample were determined by automated threshold analysis. […]

IκBζ = experiment: IL-17A-induced IκBζ in primary mouse keratinocytes (western blot); assay type: cell-based; conditions: DI 12 h, IL-17A 100 ng/ml
Procedure: Cells were lysed in RIPA Lysis Buffer System (Santa Cruz) and heat-denatured at 95° C. for 5 min in reducing sample buffer (BioRad). Proteins were separated on 4%-20% polyacrylamide gradient gels (BioRad) and transferred onto 0.45 μm pore size PVDF membranes (Millipore). Non-specific binding was blocked with 5% skim milk (or 5% BSA when phospho-proteins were analyzed), and membranes were probed with primary antibodies specific to Nrf2 (#12721), HO-1 (#70081), IκBζ (mouse specific, #93726), IκBζ(#9244), ATF3 (#D2Y5W), IRAK1 (#4504; sensitivity of IRAK1 detection diminishes upon IRAK1 K63 ubiquitination), phospho-IKK (Ser176/180, #2697), p62/SQSTM1 (#5114), phospho-eIF2α (Ser51, #9721), eIF2α (#5324) from Cell Signaling; GAPDH (sc-25778), IκBα (sc-1643), ATF3 (sc-188), SDHA (sc-166909) from Santa Cruz; NQO1 (ab28947) from Abeam, followed by incubation with anti-rabbit-HRP (1:10,000; sc-2030) or anti-mouse-HRP (1:10,000; sc-2031) from Santa Cruz and Clarity western ECL substrate (Bio-Rad). Membranes were exposed to X-Ray films (Research Products International Corp.) and developed using SRX-101A film processor (Konica Minolta). GAPDH run on the same blot was used as loading control. After scanning of original films image brightness of some blots was adjusted and bands were cropped using ImageJ. Densitometry was performed using ImageJ. […]

SDH = biological target: T1, SDH (Mus musculus, UniProt Q8K2B3); experiment: SDH activity in mouse heart and liver; assay type: in vivo; conditions: daily DI administration i.p.
T1 construct: from tissue; host or cells: mitochondria isolated from mouse heart and liver
T1 sequence (Q8K2B3 43-664): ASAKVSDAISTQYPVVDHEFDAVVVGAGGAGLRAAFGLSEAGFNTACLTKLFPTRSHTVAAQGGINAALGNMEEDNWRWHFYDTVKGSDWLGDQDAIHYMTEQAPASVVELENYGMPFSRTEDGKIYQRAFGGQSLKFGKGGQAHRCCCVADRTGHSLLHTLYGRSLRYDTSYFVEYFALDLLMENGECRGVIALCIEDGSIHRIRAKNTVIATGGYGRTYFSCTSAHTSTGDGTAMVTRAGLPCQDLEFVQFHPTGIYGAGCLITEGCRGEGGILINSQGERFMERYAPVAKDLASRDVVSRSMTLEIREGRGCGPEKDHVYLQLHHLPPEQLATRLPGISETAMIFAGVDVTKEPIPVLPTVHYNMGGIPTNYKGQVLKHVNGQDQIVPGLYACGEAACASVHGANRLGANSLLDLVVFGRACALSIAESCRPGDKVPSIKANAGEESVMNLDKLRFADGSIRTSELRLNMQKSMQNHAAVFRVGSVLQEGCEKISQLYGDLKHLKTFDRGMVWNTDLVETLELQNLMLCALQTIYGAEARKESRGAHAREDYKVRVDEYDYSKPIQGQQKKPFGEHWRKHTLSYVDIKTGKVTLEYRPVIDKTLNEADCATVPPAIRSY
T1 sequence (Q9CQA3 31-282 partner): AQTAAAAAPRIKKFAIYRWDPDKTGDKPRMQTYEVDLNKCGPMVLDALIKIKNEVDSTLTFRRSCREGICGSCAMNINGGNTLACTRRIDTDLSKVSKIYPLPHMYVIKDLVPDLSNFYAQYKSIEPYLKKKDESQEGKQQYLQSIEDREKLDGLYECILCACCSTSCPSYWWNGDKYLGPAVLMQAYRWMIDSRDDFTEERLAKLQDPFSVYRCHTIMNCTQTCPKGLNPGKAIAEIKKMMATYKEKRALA
T1 sequence (Q9CZB0 30-169 partner): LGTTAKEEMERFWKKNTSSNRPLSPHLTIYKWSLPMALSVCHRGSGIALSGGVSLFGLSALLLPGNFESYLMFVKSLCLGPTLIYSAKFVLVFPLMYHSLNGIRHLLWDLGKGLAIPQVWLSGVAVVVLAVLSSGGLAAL
T1 sequence (Q9CXV1 57-159 partner): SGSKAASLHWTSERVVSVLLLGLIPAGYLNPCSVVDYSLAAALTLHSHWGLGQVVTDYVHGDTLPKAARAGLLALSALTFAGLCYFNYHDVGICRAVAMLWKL
Procedure: DI was administered to mice via the intraperitoneal route at 20 mg/500 μL sterile PBS per mouse either once per day for total length of 4 days (DI daily) or every 2 h, 3 times in total (DI overdose). In daily DI administration, last injection was 6 h before the tissue harvest, in DI overdose protocol last injection was 2 h before harvest. Mice were euthanized and heart (50 mg) and liver tissue (200 mg) were harvested, washed in PBS and processed for mitochondria isolation with Mitochondria Isolation Kit for Tissue (#89801, Thermo Scientific) according to manufacturer's instruction. For analysis of mitochondria purity cytoplasmic and mitochondrial fractions were diluted with reducing sample buffer and analyzed by western blot for SDH and GAPDH presence (see western blot analysis section). SDH activity in isolated mitochondria was analyzed using SDH Activity Colorimetric Kit (#MAK197, Sigma). Isolated mitochondria were directly resuspended in SDH Assay Buffer. In parallel, protein concentration in each sample was determined using RC/DC™ Protein Assay (Biorad) and activity was normalized to protein concentration.

Structure (SMILES): C=C(CC(=O)OC)C(=O)OC [DI, dimethyl itaconate]
- eIF2α phosphorylation in Atf3−/− macrophages (eIF2α; Atf3−/− macrophages): failed to increase eIF2α phosphorylation
- eIF2α phosphorylation (eIF2α; WT macrophages): marked increase
- IL-6 production in DI-treated Atf3−/− cells compared to WT (IL6, IL12, IL1b, TNFα; Atf3−/− BMDMs, DI, LPS 24 h): significantly increased IL-6 production
- LPS-induced cytokine production (IL6, IL12, IL1b, TNFα; BMDMs pretreated 12 h, then LPS): down-regulates production of IL6, IL12, and IL1b, but not TNFα
- DI-mediated IL-6 inhibition in Nrf2-deficient BMDMs (IL6, IL12, IL1b, TNFα; Nrf2-deficient BMDMs, DI, LPS 4 h): did not alleviate
- Ikb-ζ (Nfkbiz) mRNA level (Nfkbiz mRNA): only moderate effect; also recorded: not changed
- IL-17-induced IκBζ induction (IκBζ): inhibited
- SDH activity in heart and liver (SDH): did not significantly affect SDH activity
